Our source for the IC50, Ki and Km values is ChEMBL document CHEMBL1139063, “Inhibitory effects of phloridzin dihydrate on the activity of mushroom (Agaricus bisporus) tyrosinase” (Bioorg Med Chem, 2007).

Data set [1] deals with T1, Tyrosinase (Agaricus bisporus, UniProt O42713).
T1 sequence (O42713 whole entry): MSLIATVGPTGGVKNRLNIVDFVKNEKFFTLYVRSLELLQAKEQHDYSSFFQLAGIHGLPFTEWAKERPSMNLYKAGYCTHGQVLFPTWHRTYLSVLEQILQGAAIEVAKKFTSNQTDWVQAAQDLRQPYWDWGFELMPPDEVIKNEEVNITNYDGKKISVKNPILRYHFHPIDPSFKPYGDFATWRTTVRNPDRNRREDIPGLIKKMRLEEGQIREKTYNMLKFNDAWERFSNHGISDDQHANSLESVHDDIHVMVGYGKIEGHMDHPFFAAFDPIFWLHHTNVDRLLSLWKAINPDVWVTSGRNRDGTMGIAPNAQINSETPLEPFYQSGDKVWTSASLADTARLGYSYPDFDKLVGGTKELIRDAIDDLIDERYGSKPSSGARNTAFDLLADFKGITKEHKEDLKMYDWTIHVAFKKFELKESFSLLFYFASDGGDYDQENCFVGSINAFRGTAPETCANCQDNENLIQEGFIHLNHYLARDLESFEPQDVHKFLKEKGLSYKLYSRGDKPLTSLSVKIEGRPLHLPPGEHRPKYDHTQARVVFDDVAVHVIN
Nature of the data set: Inhibition of diphenolase activity of mushroom tyrosinase.

Substrate in data set [2]: O=C(CCc1ccc(O)cc1)c1c(O)cc(O)cc1O[C@@H]1O[C@H](CO)[C@@H](O)[C@H](O)[C@H]1O
Description: Activity of mushroom tyrosinase diphenolase
The conditions noted are these: Agaricus bisporus.

`O=C(CCc1ccc(O)cc1)c1c(O)cc(O)cc1O[C@@H]1O[C@H](CO)[C@@H](O)[C@H](O)[C@H]1O`: in data set [1], half-maximal inhibition (IC50) required 110 µM and the affinity, expressed as Ki, was 64.3 µM.

B1: Tyrosinase (Agaricus bisporus), O42713 (protein)
chain: T1 sequence (O42713 whole entry)
B1: the Michaelis-Menten constant (Km) – broadly, the substrate concentration at which the rate is half of its maximum – in data set [2] worked out at 627 µM.
